Structures can show the parent of a compound that is named as a salt.
Columns and labels:
[1] = test system: Trichophyton mentagrophytes CDC27; assay: in vitro antifungal activity, Trichophyton mentagrophytes (MIC); assay type: cell-based; settings: 35° C., 48 hours, RPMI 1640 plus 10% fetal calf serum, 95-100% inhibition of growth; for MIC: read-out: minimum inhibitory concentration (MIC), T.m.
Experimental: (§1) The antifungal activity was assayed in vitro against Candida abicans A26, Trichophyton mentagrophytes CDC27, and Aspergillus flavus M152. The inocula, previously frozen under liquid nitrogen in a lactose, glycerol and water solution, were standardized by counting spores with a hemocytometer. Final concentrations (C. albicans, 1×10^5 cells/m; T. mentagrophytes, 1×10^6 cells/ml; A. flavus, 1×10^5 cells/ml) in RPMI 1640 plus 10% fetal calf serum were added to each of the 96 wells of a microtiter plate (100 μl/well).The compounds to be tested were solubilized in either water or ethanol and added to the microtiter wells in serial dilutions to give final concentrations in the range 0.039-20 μg/ml. The plates were incubated at 35° C. for 48 hours. The minimum inhibitory concentration (MIC) values were determined as the highest dilution showing 95-100% inhibition of growth.
(§2) ^a Minimum inhibitory concentration expressed in μg/ml
^d T.m. means Trichophyton mentagrophytes CDC27

Aspergillus flavus M152 = assay: in vitro antifungal activity, Aspergillus flavus (MIC); assay type: cell-based; settings: 35° C., 48 hours, RPMI 1640 plus 10% fetal calf serum, 95-100% inhibition of growth; for MIC: read-out: minimum inhibitory concentration (MIC), A.f.
Experimental: as §1, §2
^c A.f. means Aspergillus flavus M152

Candida albicans A26 = assay: in vitro antifungal activity, Candida albicans (MIC); assay type: cell-based; settings: 35° C., 48 hours, RPMI 1640 plus 10% fetal calf serum, 95-100% inhibition of growth; for MIC: read-out: minimum inhibitory concentration (MIC), C.a.
Experimental: as §1, §2
^b C.a. means Candida albicans A26

[2] = test system: thromboplastin clotting time in human plasma; assay: prothrombin time test (thromboplastin clotting time in human plasma); assay type: biochemical; settings: 37° C., human plasma
Experimental: Briefly, to 0.1 ml of each of human plasma, normal saline and thromboplastin was added 0.03 ml of the test compound of the present invention (2 mg/ml in 50 percent methanol). The clotting time was measured at 37° C. with a Fibrometer.
^a Expressed in seconds
^b Concentration of compound tested in micrograms per milliliter of […]

[3] = 11 micrograms per milliliter of plasma
[4] = 22 micrograms per milliliter of plasma
[5] = 45 micrograms per milliliter of plasma
[6] = 90 micrograms per milliliter of plasma
[7] = 180 micrograms per milliliter of plasma
[8] = 45 micrograms per milliliter of plasma, hydrochloride
[9] = 90 micrograms per milliliter of plasma, hydrochloride

| Molecule | MIC [1] | MIC (Aspergillus flavus M152) | MIC (Candida albicans A26) | also measured |
| --- | --- | --- | --- | --- |
| 4-(2-Butenyloxy)-N,N,α-trimethylbenzenepropanamine hydrochloride [Example 56] |  |  |  | minimum inhibitory concentration (MIC), T.m. [1]: 0.312 µg/mL; minimum inhibitory concentration (MIC), A.f. (Aspergillus flavus M152): 5 µg/mL; minimum inhibitory concentration (MIC), C.a. (Candida albicans A26): 0.625 µg/mL |
| CCCCCCOc1ccc(CC(CN)c2ccccc2)cc1 (stereo not drawn) [Example 1, 4-(Hexyloxy)-β-phenylbenzenepropanamine] | 10 µg/mL | 10 µg/mL | 10 µg/mL | plasma prothrombin time [2, 3]: 32 s; plasma prothrombin time [2, 4]: 43 s; plasma prothrombin time [2, 5]: 91 s; plasma prothrombin time [2, 6]: > 300 s; plasma prothrombin time [2, 7]: > 300 s |
| CC(CCc1ccc(OCCC2CCCCC2)cc1)NCCN(C)C (stereo not shown) [Example 46, N'-[3-[4-(2-Cyclohexylethoxy)phenyl]-1-methylpropyl]-N,N-dimethyl-1,2-ethanediamine dihydrochloride] | 10 µg/mL | 20 µg/mL | 10 µg/mL |  |
| CC(CCc1ccc(OC2CCCC2)cc1)NCCN1CCOCC1 (stereo not shown) [Example 47, N-[3-[4-(Cyclopentyloxy)phenyl]-1-methylpropyl]-4-morpholineethanamine dihydrochloride] | 20 µg/mL | 10 µg/mL | 10 µg/mL |  |
| CSCCOc1ccc(CCC(C)N(C)C)cc1 (stereo not drawn) [Example 57, 4-(2-Methylthioethoxy)-N,N,α-trimethylbenzenepropanamine hydrochloride] | 0.312 µg/mL | 20 µg/mL | 1.25 µg/mL |  |
| CC(CCc1ccc(OCCN(C)C)cc1)N(C)C (stereo not drawn) [Example 58, 4-[2-(Dimethylamino)ethoxy]-N,N,α-trimethylbenzenepropylamine dihydrochloride] | 10 µg/mL | 20 µg/mL | 1.25 µg/mL |  |
| CC(CCc1ccc(OCCCC#N)cc1)N(C)C (stereo not shown) [Example 59, 4-8 4-[3-(Dimethylamino)butyl]phenoxy]butanenitrile hydrochloride] | 20 µg/mL | 20 µg/mL | 2.5 µg/mL |  |
| CC(CCc1ccc(OCC(=O)C(C)(C)C)cc1)N(C)C (stereo not shown) [Example 60, 3,3-Dimethyl-1-[4-[3-(dimethylamino)-1-butyl]phenoxy]-2-butenone hydrochloride] | 0.625 µg/mL | 10 µg/mL | 10 µg/mL |  |
| CC(CCc1ccc(OCCn2ccnc2)cc1)N(C)C (stereo not drawn) [Example 61, N,N,α-Trimethyl-4-[2-(1H-imidazol-1-yl)ethoxy]benzenepropanamine] | 10 µg/mL | > 20 µg/mL | 5 µg/mL |  |
| CC(CCc1ccc(OCCn2cncn2)cc1)N(C)C (stereo not drawn) [Example 62, N,N,α-Trimethyl-4-[2-(1H-1,2,4-triazol-1-yl)ethoxy]benzenepropanamine] | 10 µg/mL | 20 µg/mL | 10 µg/mL |  |
| CC(CCc1ccc(OCc2cccc(F)c2)cc1)N(C)C (stereo not drawn) [Example 63, N,N,α-Trimethyl-4-[(3-fluorophenyl)methoxy]benzenepropanamine hydrochloride] | 1.25 µg/mL | 5 µg/mL | 0.625 µg/mL |  |
| CC(CCc1ccc(OCc2ccc(Cl)cc2Cl)cc1)N(C)C (stereo not drawn) [Example 64, N,N,α-Trimethyl-4-(2,4-dichlorophenyl)methoxy]benzenepropanamine hydrochloride] | 5 µg/mL | 5 µg/mL | 20 µg/mL |  |
| CC(CCc1ccc(OCc2ccc(C(F)(F)F)cc2)cc1)N(C)C (stereo not drawn) [Example 65, N,N,α-Trimethyl-4-[[4-(trifluoromethyl)phenyl]methoxy]-benzenepropanamine hydrochloride] | 5 µg/mL | 10 µg/mL | 20 µg/mL |  |
| CC(CCc1ccc(OS(=O)(=O)c2ccccc2)cc1)N(C)C (stereo not shown) [Example 66, Benzenesulfonic acid 4-[3-(dimethylamino)butyl]phenylester] | 5 µg/mL | 20 µg/mL | 10 µg/mL |  |
| CCCS(=O)(=O)Oc1ccc(CCC(C)N(C)C)cc1 (stereo not shown) [Example 67] | > 20 µg/mL | 20 µg/mL | 20 µg/mL |  |
| CCCCOc1ccc(CCC(C)N(C)CC)cc1 (stereo not drawn) [Example 68, 4-Butoxy-N-ethyl-N,α-dimethylbenzenepropanamine hydrochloride] | 1.25 µg/mL | 0.625 µg/mL | 0.625 µg/mL |  |
| CCCCOc1ccc(CCC(C)N2CC(C)OC(C)C2)cc1 (stereo not shown) [Example 69, 4-[3-(4-Butoxyphenyl)-1-methylpropyl]-2,6-dimethylmorpholine hydrochloride] | 1.25 µg/mL | > 20 µg/mL | > 20 µg/mL |  |
| CCCCOc1ccc(CCC(CC)N(C)C)cc1 (stereo not drawn) [Example 70, 4-Butoxy-α-ethyl-N,N-dimethylbenzenepropanamine hydrochloride] | 0.156 µg/mL | 10 µg/mL | 0.156 µg/mL |  |
| COc1ccc(CC(c2ccccc2)C(C)N)cc1OCC1CCCCC1 (stereo not drawn) [Example 71, 3-(Cyclohexylmethoxy)-4-methoxy-α-methyl-β-phenylbenzenepropanamine hydrochloride] | 10 µg/mL | 10 µg/mL | 20 µg/mL |  |
| CCCCCCOc1ccc(CC(c2ccc(OC)cc2)C(C)N)cc1 (stereo not drawn) [Example 72, 4-(Hexyloxy)-β-4-methoxyphenyl-αmethylbenzenepropanamine hydrochloride] | 5 µg/mL | 10 µg/mL | 10 µg/mL |  |
| COCCOc1ccc(CCC(C)N(C)C)cc1.Cl (stereo not drawn) [Example 76, 4-(2-Methoxyethoxy)-N,N,α-trimethylbenzenepropanamine hydrochloride] |  |  |  | plasma prothrombin time [2, 5]: 17 s; plasma prothrombin time [2, 6]: 17 s; plasma prothrombin time [2, 7]: 18 s |
| CCCCOc1ccc(CCC(C)N2CCCC2)cc1.Cl (stereo not shown) [Example 77, 1-[3-[4-(Butoxy)phenyl]-1-methylpropyl]-pyrrolidine hydrochloride] |  |  |  | plasma prothrombin time [2, 3]: 15 s; plasma prothrombin time [2, 4]: 16 s; plasma prothrombin time [2, 5]: 23 s; plasma prothrombin time [2, 6]: 24 s; plasma prothrombin time [2, 7]: 53 s |
| CCCCOc1ccc(CC(C)CN(C)C)cc1.Cl (stereo not drawn) [Example 78, 4-Butoxy-N,N,β-trimethylbenzenepropanamine hydrochloride] |  |  |  | plasma prothrombin time [2, 5]: 23 s; plasma prothrombin time [2, 6]: 31 s; plasma prothrombin time [2, 7]: 67 s |
| CC(CCc1ccc(OCCC(C)(C)C)cc1)N(C)C.Cl (stereo not drawn) [Example 79, 4-(3,3-Dimethylbutoxy)-N,N,α-trimethylbenzenepropanamine hydrochloride] |  |  |  | plasma prothrombin time ([2]; 11 micrograms per milliliter of plasma, hydrochloride): 19 s; plasma prothrombin time ([2]; 22 micrograms per milliliter of plasma, hydrochloride): 21 s; plasma prothrombin time [2, 8]: 31 s; plasma prothrombin time [2, 9]: 55 s; plasma prothrombin time [2, 7]: 90 s |
| CC(CCc1ccc(OCC2CCCC2)cc1)N(C)C (stereo not drawn) [Example 80, 4-Cyclopentylmethoxy-N,N-α-trimethylbenzenepropanamine hydrochloride] |  |  |  | plasma prothrombin time [2, 3]: 17 s; plasma prothrombin time [2, 4]: 19 s; plasma prothrombin time [2, 8]: 24 s; plasma prothrombin time [2, 9]: 43 s; plasma prothrombin time ([2]; 180 micrograms per milliliter of plasma, hydrochloride): 88 s |
| CC(CCc1ccc(OCC2CCCC2)cc1)N(C)C (stereo not drawn) [Example 81, 4-Cyclopentylmethoxy-N,N-α-trimethylbenzenepropanamine] |  |  |  | plasma prothrombin time [2, 5]: 20 s; plasma prothrombin time [2, 6]: 25 s; plasma prothrombin time [2, 7]: 47 s |
| CC(CCc1ccc(OCc2ccc(F)cc2)cc1)N(C)C.Cl (stereo not drawn) [Example 82, 4-[(4-Fluorophenyl)methoxy]-N,N,α-trimethylbenzenepropanamine hydrochloride] |  |  |  | plasma prothrombin time [2, 3]: 18 s; plasma prothrombin time [2, 4]: 19 s; plasma prothrombin time [2, 5]: 24 s; plasma prothrombin time [2, 6]: 29 s; plasma prothrombin time [2, 7]: 75 s |
| CC(CCc1ccc(C(C)(C)C)cc1)N(C)C.Cl (stereo not drawn) [Example 83, 4-(1,1-Dimethylethyl)-N,N,α-trimethylbenzenepropanamine hydrochloride] |  |  |  | plasma prothrombin time [2, 5]: 21 s; plasma prothrombin time [2, 6]: 26 s; plasma prothrombin time [2, 7]: 37 s |
| CC(CCc1ccc(OCc2ccccc2)cc1)N(C)C (stereo not drawn) [Example 84, N,N,α-Trimethyl-4-(phenylmethoxy)benzene propanamine hydrochloride] | 0.312 µg/mL | 10 µg/mL | 0.156 µg/mL |  |

Reference: patent publication US5135955A, “Propanamine derivatives” (Eli Lilly and Company, priority 1989, dated 1992)
